Test results from US12357632B2, “Methods of treating cholangiocarcinoma” (QED Therapeutics, Inc., priority 2019, dated 2025).

Key:
[1] = system: advanced or metastatic cholangiocarcinoma with FGFR genetic alterations; assay: Phase II study of oral BGJ398 in advanced or metastatic cholangiocarcinoma, Patient 5010004 (RECIST v1.1); format: in vivo, human; conditions: Patient 5010004, oral erdafitinib prior to study treatment
Protocol: This is a multi-center, open label, single arm phase II study evaluating BGJ398 anti-tumor activity in advanced or metastatic cholangiocarcinoma patients with FGFR genetic alterations. 125 mg of oral, monotherapy BGJ398 is administered once daily for the first 3 weeks (21 days) of each 28-day cycle. The starting dose of 125 mg may be reduced to 100 mg, 75 mg, or 50 mg. The treatment period begins on Cycle 1, Day 1, and continues until disease progression, unacceptable toxicity, withdrawal of informed consent, or death. Patients are evaluated for tumor response radiographically every 8 weeks until disease progression or discontinuation from study using RECIST v1.1 criteria.
Adult patients with histologically or cytologically confirmed advanced or metastatic cholangiocarcinoma with FGFR2 gene fusions or translocations or other FGFR genetic alteration who have evidence of radiologic progression following a cisplatin- and gemcitabine-containing regimen for advanced disease or a gemcitabine-containing regimen for those who are considered intolerant to cisplatin are enrolled. Up to approximately 160 adult patients over age 18, both male and female are enrolled. Three cohorts of patients comprise the study population: • Cohort 1: ˜120 patients, 108 with FGFR2 gene fusions or translocations and 12 with other FGFR genetic alterations. • Cohort 2: ˜20 patients with FGFR genetic alterations other than FGFR2 gene fusions or translocations. • Cohort 3: Up to ˜20 patients with FGFR2 gene fusions or translocations who have received a prior FGFR inhibitor. Main Inclusion Criteria
Tumor response according to RECIST v1.1, and survival.
During treatment with infigratinib, the patient's response was determined by follow-up assessments conducted by a local investigator per RECIST v1.1.

[2] = Tolerability (body weight, clinical observations) in UREx-MR2057PD-AR xenograft study; format: in vivo, Mouse (Mus musculus)
Protocol: (§1) All animals were weighed at the same time as tumor size measurement. A Relative Body Weight loss (RBW loss) was considered as adverse effect of the treatment.
(§2) Mice were observed every day for physical appearance, behavior and clinical changes.
(§3) Relative Body Weight (RBW) is calculated for each measurement by dividing the body weight by the body weight at the start of treatment.
(§4) Individual Body weight loss percent (% BWL)=100−(BWX/BW0×100), where BWX is the BW at any day during the treatment and BW0 is the BW on the day of inclusion.
(§5) Mean Body weight loss percent (% BWL)=100−(mean BWX/mean BW0×100), where BWX is the mean BW at any day during the treatment and BW0 is the mean BW on the day of inclusion.

[3] = Tolerability (body weight, clinical observations) in Vex-MR086M1 xenograft study; format: in vivo, Mouse (Mus musculus)
Protocol: as §1, §2, §3, §4, §5

cholangiocarcinoma = conditions: ABC-02 trial (Valle et al., 2010); cited from earlier work

SMILES	best response [1]	time to discontinuation due to radiological disease progression [1]	clinical observations ([2]; erdafitinib 15 mg/kg PO qdx21)	maximum mean body weight loss ([2]; erdafitinib 15 mg/kg PO qdx21)	tolerability ([2]; erdafitinib 15 mg/kg PO qdx21)	maximum individual body weight loss ([2]; erdafitinib 15 mg/kg PO qdx21, on D3)	clinical observations ([3]; erdafitinib 15 mg/kg PO qdx21)	mean body weight loss ([3]; erdafitinib 15 mg/kg PO qdx21)	tolerability ([3]; erdafitinib 15 mg/kg PO qdx21)	maximum individual body weight loss ([3]; erdafitinib 15 mg/kg PO qdx21, on D17)	median overall survival (cholangiocarcinoma)	median progression-free survival (cholangiocarcinoma)
COc1cc(OC)cc(N(CCNC(C)C)c2ccc3ncc(-c4cnn(C)c4)nc3c2)c1 [Erdafitinib, reference compound]	progressive disease	approximately 2 months	No relevant observable signs were reported	no maximum mean body weight loss	well tolerated	4.9%	No relevant observable signs were reported	no mean body weight loss	well tolerated except for 1 mouse	10.6%		
Nc1ccn([C@@H]2O[C@H](CO)[C@@H](O)C2(F)F)c(=O)n1 [gemcitabine]											8.1 months	5.0 months
